# Experimental data reported in patent US20090264483A1, “METHODS OF USING PPAR-gamma AGONISTS AND CASPASE-DEPENDENT CHEMOTHERAPEUTIC AGENTS FOR THE TREATMENT OF CANCER” (CEDARS-SINAI MEDICAL CENTER, priority 2006, published 2009).
# d = 2'-deoxy (DNA); r = 2'-OH (RNA)
# B1: TRAIL: Recombinant human tumor necrosis factor-related apoptosis-inducing ligand, obtained from Pepro-Tech (protein, UniProt P50591 1-281, looked up)
# Tumor necrosis factor ligand …: MAMMEVQGGPSLGQTCVLIVIFTVLLQSLCVAVTYVYFTNELKQMQDKYSKSGIACFLKEDDSYWDPNDEESMNSPCWQVKWQLRQLVRKMILRTSEETISTVQEKQQNISPLVRERGPQRVAAHITGTRGRSNTLSSPNSKNEKALGRKINSWESSRSGHSFLSNLHLRNGELVIHEKGFYYIYSQTYFRFQEEIKENTKNDKQMVQYIYKYTSYPDPILLMKSARNSCWSKDAEYGLYSIYQGGIFELKENDRIFVSVTNEHLIDMDHEASFFGAFLVG
# Key:
# Type in all cases: cell-based, human
# [1] = system: STAT3, pY705-STAT3, FLIP, Bcl-2, Bax, pS392-p53, PTP1B, SHP-1; experiment: Western blot of glioma cell protein extracts
# Excerpt: Rabbit polyclonal Abs against DR4, DR5, and PPARγ were obtained from Cayman Chemical. Mouse monoclonal Abs against STAT3, phosphotyrosine 705 STAT3 (pY705-STAT3), which is an activated form of STAT3, Bax, and Bcl-2 were obtained from Pharmingen. Rabbit polyclonal Abs against p53 and phosphor-Ser-392-p53 (pS392-p53) were obtained from Cell Signaling Technology (Beverly, Mass.). Mouse monoclonal Abs against PTP1B (PTPase1B; AE4-2J) and Src homology 2-containing PTP-1 (SHP1; 1SH01) and rabbit polyclonal Ab against FLIP were obtained from Calbiochem. Mouse monoclonal Ab of β-tubulin was obtained from Sigma. Horseradish peroxidase-linked Abs of sheep anti-mouse IgG and donkey anti-rabbit IgG were obtained from Amersham Biosciences.
# Samples were extracted with buffer containing 1% Triton X-100, 150 mM NaCl, 50 mM Tris (pH 7.5), and 1 mM phenylmethylsulfonyl fluoride (Roche Applied Science) and were subjected to SDS-PAGE with 30 μg of general protein loading into each lane on a 10% polyacrylamide gel. Electrophoretic transfer to nitrocellulose membranes (Amersham Biosciences) was followed by immunoblotting. The signal was detected by using an ECL detection system (Amersham Biosciences).
# caspase-3, -8, and -9 [2] = experiment: Caspase activity assay in TRAIL-treated glioma cells
# Experimental: (§1) Activity of caspase-3, -8, and -9 was measured using caspase-3/CPP32, FLICE/caspase-8, and APOPCYTO/caspase-9 […] assay kits, respectively, from Medical and Biological Laboratories Co. (Nagoya, Japan). Briefly, the treatment of cells with TG, GW, and/or PTPI for 24 h was followed by treatment with rTRAIL, VP 16 or Taxol. After 2 h (24 h) of treatment, all the cells were harvested, and samples were extracted with Cell Lysis Buffer. Concurrently, a sample for a negative control was extracted from the cells without apoptosis induction. A standard curve using the absorbance of p-nitroanilide standards was constructed, and then the specific activities on each sample were calculated according to the manufacturer's protocol.
# [3] = system: LN-18, U-87MG, and MG-328 glioma cells; experiment: Cell viability assay (Ann/PI staining, FACS) with TRAIL
# Experimental: (§2) Treatment of cells with TG, GW, PTPI, and/or SHPI for 24 h was followed by treatment with rTRAIL, VP16 or Taxol, and all the cells, including cells that had not adhered, were harvested after 24 h (48 h). An annexin V-fluorescein isothiocyanate apoptosis detection kit I (Pharmingen) was used for viability assay of the cells. Cells were stained with annexin V-fluorescein isothiocyanate (Ann) and propidium iodide (PI) according to the manufacturer's protocol and were analyzed by FACS (Pharmingen). Cells that stained negative for both Ann and PI were defined as viable cells for viability assay.
# caspase-3, -8, and -9 [4] = experiment: Caspase activity assay in U-87MG treated with VP16 or Taxol; conditions: PTPI 50 μM and TG 30 μM for 24 h, then VP16 10 μM or Taxol 5 μM
# Experimental: as §1
# (§3) Based on this hypothesis, a determination was sought whether TG enhances the cytotoxic activities of etoposide (VP16) and paclitaxel (Taxol), which are known to involve activation of caspase-2, -8, -9, and -10 during their apoptosis induction (Lin et al. (2004) J. Biol. Chem. 279, 40755-40761.; Perkins et al. (2000) Cancer Res. 60, 1645-1653.; Park et al. (2004) J. Biol. Chem. 279, 51057-51067.). To confirm this, treatment of U-87MG with TG and/or PTPI was followed by treatment with VP16 (0.01-10 μM) or Taxol (0.005-5 μM). The cells were then subjected to cell viability (FIGS. 7, A and B) and caspase activity assays (FIGS. 7, C and D).
# U-87MG cells = experiment: Cell viability assay (Ann/PI staining, FACS) with VP16 or Taxol; conditions: for proliferation of cells in the control group (no TG or PTPI): 5-day cell cultures, U-87MG (not shown)
# Experimental: as §2, §3
# STAT3 mRNA = experiment: Real time quantitative RT-PCR; conditions: LN-18; STAT3-siRNA 50-600 pmol; 24 h after transfection; dose-dependent
# Experimental: DNA amplification was performed using an […] […] ID NO: 3), STAT3 reverse, [NT] ID NO: 4); and β-actin forward, [NT] ID NO: 5), β-actin reverse, [NT] ID NO: 6).
# LN-18 = experiment: Annexin V apoptosis detection (FACS) after TRAIL treatment; conditions: TRAIL 300 ng/ml
# Experimental: as §2, with “Treatment of cells with TG, GW, PTPI, and/or SHPI for 24 h was followed by treatment with rTRAIL, VP16 or Taxol, and all the cells, including cells that had not adhered, were harvested after 24 h (48 h).” left out
# To examine the mechanism that causes resistance to TRAIL, glioma cell lines were used that are partially resistant to TRAIL despite their expression of DR4 and/or DR5. Western blot was used to detect the expression levels of DR4 and DR5 in LN-18, U-87MG, and MG-328 (FIG. 1A). The cytotoxic activity of TRAIL (18.75-300 ng/ml) was examined in each glioma (FIGS. 1, B and C). […] These findings indicate that these gliomas can acquire a resistance to TRAIL despite their expression of functionally intact DR4/5.
# [5] = SHPI 200 μM and TG 30 μM, then rTRAIL (not shown)
# [6] = STAT3-siRNA-transfected glioma cells
molecule,measurement,setting,value
"O=C(Nc1ccccc1)c1cc([N+](=O)[O-])ccc1Cl [GW, GW9662]",pY705-STAT3 expression in cells treated with TG and GW,[1]; GW 20 μM and TG 30 μM for 24 h,down-regulation of pY705-STAT3 was observed
same,effect on the up-regulation of pS392-p53 induced by TG,"[1]; GW 20 μM and TG 30 μM for 24 h, LN-18 and U-87MG",abrogated
same,effect on the up-regulation of Bax found in TG-treated cells,"[1]; GW 20 μM and TG 30 μM for 24 h, U-87MG",inhibited
same,effect on the specific activities of caspases in TG/TRAIL-treated cells,"caspase-3, -8, and -9 [2]; GW 20 μM and TG 30 μM for 24 h, then rTRAIL 100 ng/ml for 2 h",did not reduce
same,effect on the activity of TG in TRAIL-treated glioma cells (cell viability),"[3]; GW 20 μM and TG 30 μM for 24 h, then rTRAIL 100 ng/ml for 24 h",not blocked
"O=C(CBr)c1ccc(O)cc1 [PTPI, α-bromo-4-hydroxyacetophenone]",effect on the effect of TG on the activity of caspase-8 and -9,"caspase-3, -8, and -9 [4]",completely abrogated
same,inhibition of caspase-3 activity in TG-treated cells with VP16 or Taxol,"caspase-3, -8, and -9 [4]",limited effect
same,inhibition of the cytotoxic activity in TG-treated cells with VP16 or Taxol,"U-87MG cells; U-87MG, PTPI 50 μM and TG 30 μM for 24 h, then VP16 or Taxol",limited effect
same,effect on the inhibitory effect of TG on pY705-STAT3,[1]; PTPI 50 μM and TG 30 μM for 24 h,abrogated
same,effect on the upregulation of pS392-p53 caused by TG,"[1]; PTPI 50 μM and TG 30 μM for 24 h, LN-18 and U-87MG",did not inhibit
same,effect on the effect of TG on TRAIL (caspase activity),"caspase-3, -8, and -9 [2]; PTPI 50 μM and TG 30 μM, then rTRAIL 100 ng/ml for 2 h",abrogated
same,effect on the effect of TG on TRAIL (cell viability),"[3]; PTPI 50 μM and TG 30 μM, then rTRAIL 100 ng/ml (not shown)",abrogated
"O=C(O)COc1ccc(C(=O)CBr)cc1 [SHPI, α-bromo-4-carboxymethoxyacetophenone]",effect on the downregulation of pY705-STAT3 induced by TG,[1]; SHPI 200 μM and TG 30 μM for 24 h,did not inhibit
same,effect on the effect of TG on TRAIL (caspase activity),"caspase-3, -8, and -9 [2]; [5]",did not abrogate
same,effect on the effect of TG on TRAIL (cell viability),[3]; [5],did not abrogate
"Cc1c(C)c2c(c(C)c1O)CCC(C)(COc1ccc(CC3SC(=O)NC3=O)cc1)O2 (centres unmarked) [TG, troglitazone]",effect on the cytotoxic activity of Taxol (cell viability),"U-87MG cells; U-87MG, TG 30 μM for 24 h, then Taxol 0.005-5 μM for 48 h",positive activities
same,effect on the cytotoxic activity of VP16 (cell viability),"U-87MG cells; U-87MG, TG 30 μM for 24 h, then VP16 0.01-10 μM for 48 h",positive activities
same,time at which down-regulation of pY705-STAT3 was noticeable,[1]; TG 30 μM,8 h
same,STAT3 expression levels,"[1]; TG 30 μM, LN-18, U-87MG, MG-328",no effect
same,time at which 42 kDa PTP1B expression reached maximum levels,"[1]; TG 30 μM, all gliomas",16 to 32 h
same,time of start of up-regulation of the activated form of PTP1B (42 kDa) after treatment,"[1]; TG 30 μM, all gliomas",≤ 4 h
same,effect on the cytotoxic activity of TRAIL,"[3]; TG 30 μM for 24 h, then rTRAIL 100 ng/ml for 24 h, LN-18, U-87MG and MG-328",significantly enhance
"CC(=O)O[C@H]1C(=O)[C@@]2(C)[C@H]([C@H](OC(=O)c3ccccc3)[C@]3(O)C[C@H](OC(=O)[C@H](O)[C@@H](NC(=O)c4ccccc4)c4ccccc4)C(C)=C1C3(C)C)[C@]1(OC(C)=O)CO[C@@H]1C[C@@H]2O [Taxol, paclitaxel]",proliferation of cells in the control group (no TG or PTPI),U-87MG cells; Taxol 5 μM,maintained an ability to proliferate
"COc1cc([C@@H]2c3cc4c(cc3[C@@H](O[C@@H]3O[C@@H]5CO[C@@H](C)O[C@H]5[C@H](O)[C@H]3O)[C@H]3COC(=O)[C@H]23)OCO4)cc(OC)c1O [VP16, Etoposide]",proliferation of cells in the control group (no TG or PTPI),U-87MG cells; VP16 10 μM,maintained an ability to proliferate
"STAT3-siRNA: double-stranded siRNA oligonucleotide against STAT3 (SEQ ID NO: 1 and 2), Dharmacon (chain 1 AACAUCUGCCUAGAUCGGCUATT; chain 2 UAGCGGAUCUAGGCAGAUG; chain 1: sugars from the 5' end r21 d2, backbone not given here; chain 2: RNA, 3' dTdT, backbone not given here)",STAT3 protein expression,"[1]; LN-18, STAT3-siRNA 50-600 pmol, 24 h after transfection, dose-dependent",decreased
same,Bax expression levels,[1]; [6],not altered
same,FLIP and Bcl-2 expression levels,[1]; [6],decreased
same,pY705-STAT3 expression,[1]; [6],down-regulated
same,STAT3 mRNA expression,STAT3 mRNA,decreased
same,"specific activities of caspases-3, -8, and -9","caspase-3, -8, and -9 [2]; STAT3-siRNA 600 pmol, then TRAIL 100 ng/ml for 2 h",significantly increased
same,inhibitory effect of PTPI on TG in transfected glioma cells (caspase activity),"caspase-3, -8, and -9 [2]; STAT3-siRNA 600 pmol, cells treated with TG, PTPI and TRAIL",negated
same,effect on the cytotoxic effect of TRAIL,"[3]; STAT3-siRNA 600 pmol, then TRAIL 100 ng/ml for 24 h",significantly enhanced
same,"apoptotic death of glioma cells, agent alone","[3]; STAT3-siRNA 600 pmol, without rTRAIL",did not induce their apoptotic death
B1,cell death,"[3]; 300 ng/ml TRAIL, after 24 h of treatment, LN-18, U-87MG, MG-328",40-60%
same,cells killed by TRAIL in the STAT3-siRNA-transfected group,"[3]; TRAIL 100 ng/ml, 72-h cell culture, each glioma (not shown)",more than 95%
same,proliferative ability of the viable cells,[3]; after 72 h of cell culture with 300 ng/ml TRAIL (not shown),maintained a proliferative ability
same,percentage of Ann(+) PI(−) cells (early stage of apoptosis),LN-18; after 2 h of treatment,33.7%
same,percentage of Ann(+) PI(−) cells (early stage of apoptosis),LN-18; after 24 h of treatment,60.1%
